The text below walks through data of patent US5166219A, “Systemic anti-inflammatory treatment” (Lidak Pharmaceuticals, priority 1991, dated 1992).

One assay deals with growth of plants. Conditions: Ries et al. and others; cited from earlier work.
In a further assay the test system is inflammatory disorders. Conditions: Clark, U.S. Pat. No. 4,670,471; cited from earlier work.
The subject of assay [1] is physical performance of athletes. Conditions: vegetable oil bases, oral ingestion; U.S. Pat. No. 3,031,376; cited from earlier work.
In assay [2] the test system is LP-BM 5 MuLV ecotropic virus. The experiment in a line: Percent virus inhibition / plaque count of LP-BM 5 MuLV ecotropic virus using XC indicator cells. The class given is cell-based. Conditions: for inhibition at 0.5 µg/mL / inhibition at 5 µg/mL / inhibition at 50 µg/mL / inhibition at 500 µg/mL: read-out: % decrease. As to the method: A composition a composition consisting essentially of aliphatic alcohols having 22 carbons in the aliphatic chain in micelle suspension, […], was introduced into cultures of LP-BM 5 MuLV ecotropic virus, […], and the percent of virus inhibition, as compared with controls continuing only PBS buffer, indicated by cell-fusion activity and cell plaque count, using XC indicator cells (Virology 42:1136, 1970), was determined.
The effect of the C-20 to C-26 alcohols of this invention on ecotropic virus was further confirmed and compared with AZT.

For assay [3], the system named is collagen-induced arthritis. The experiment in a line: Treatment of collagen-induced arthritis (CIA) in DBA/1 mice. The class given is in vivo. As to the method:
DBA/1 mice were injected intradermally at the base of the tail on days zero and 28 with 20 μg chick type II collagen emulsified in CFA. The mammals were followed for clinical signs of arthritis, i.e., joint erythema, edema, and loss of function. The data illustrated in FIG. 1 were derived from a series of 5 independently conducted experiments which show the clinical course of collagen-induced arthritis (CIA) in DBA/1 mice immunized with chick type II collagen/CFA. Male DBA/1 mice were immunized with 20 μg chick type Ii collagen emulsified in CFA on days zero and 28. The mammals were followed for a total of 70 days for clinical signs of arthritis, joint erythema, edema, and loss of function. That data represent the means and standard deviations of incidence of arthritis and spontaneous remission from 5 separate experiments using 10-15 mice per experiment. p As noted by others, Stuart, J. M., Townes, A. S., and Knag, A. H., Ann. Rev. Immunol. […] Histologic analysis (not shown) confirmed extensive mononuclear infiltration and pannus formation as reported by others using similar techniques, Wooley, P. H., Luthra, H. S., Stuart, J. M., and David, C. S., J. Exp. Med. 154:688-700, 1981. […] We used a four point scoring system where zero is a normal limb, 1 being marginal swelling and erythema, 2 being progressively more severe swelling, erythema, and lack of flexibility, and 3 being severe erythema, edema, and often complete fusion of the bone elements and lack of flexibility. […] S., J. Exp. Med. 154:688-700, 1981.
Male DBA/1 (obtained from Jackson Laboratories, Bar Harbor, Me.) were used at 8 to 12 weeks of age. The mice were immunized intradermally at the base of the tail on day zero and again on day 28 with 20 μg chick type II collagen, prepared exactly as described by others, Trentham, D. E., Townes, A. S., and Kang, A. H., J. Exp. Med. 146:857-858, 1977, or obtained commercially (Genzyme, Boston, Ma.), emulsified in complete Freund's adjuvant (Difco, Ann Arbor, Mi.). The mammals were examined visually twice weekly for arthritic signs, swollen and erythremic limbs. Induction of CIA-associated histopathology was assessed by evaluation of paraffin sections of normal limbs, and limbs obtained from mammals with various stages of the disease essentially as described by others, Wooley, P. H., Luthra, H. S., Stuart, J. M., and David, C. S., J. Exp. Med 154:688-700, 1981.
n-Docosanol was suspended in Pluronic F68® (Trademark of BASF Corp; chemical composition, poloxamer 188, a non-ionic detergent block co-polymer of propylene oxide and ethylene oxide) as follows: Pluronic F-68 (mw 8,400; BASF Corp., Parsippany, N.J.) was diluted to 10 mg/ml in warm (37° C.) Dulbecco's high glucose modified Eagle's medium (DMEM; Whittaker Bioproducts, Walkersville, Md.), and the solution then heated to 50° C. n-Docosanol was added at 10 mg/ml to the Pluronic F-68 in DMEM and the solution further heated to 86° C. wile sonicating (Branson 450 sonifier) for 21 minutes at an initial output of 65 watts. The resulting stock suspension contained 10 mg/ml of n-docosanol particles of 0.03-0.3 microns. The corresponding control solution was prepared identically except the n-docosanol was excluded.
Adult DBA/1 mice were immunized with collagen/CFA as described in […], and on day 44 after primary immunization the mammals were given a clinical score and placed in one of three groups. […] One group was treated once daily with 5 mg of n-docosanol as indicated in FIG. 3 (0.5 ml of 10 mg/ml n-docosanol in 10 mg/ml Pluronic F-68), half of which was given intravenously and the other half given subcutaneously. Another group was treated with 5 mg Pluronic F-68 control in a similar manner. The last group was left untreated.
The effects of n-docosanol on CIA in DBA/1 Mice are depicted in FIG. 3. Adult DBA/1 male mice were immunized with collagen/CFA as described in the legend to FIG. 2. […]

Molecules are shown by their SMILES. Like-named read-outs stand apart in the source and are kept apart here.

As to `CCCCCCCCCCCCCCCCCCCCCCCCCCCCCCO` [1-triacontanol], the plant growth activity result in the assay on growth of plants is recorded as “stimulates the growth of plants”. Also, the anti-inflammatory effectiveness entry with inflammatory disorders is listed as “the aerosol carrier destroyed the effect of triacontanol”. The “physical performance of athletes” value in assay [1] is “improved physical performance of athletes”.
Turning to `Cc1cn([C@H]2C[C@H](N=[N+]=[N-])[C@@H](CO)O2)c(=O)[nH]c1=O` [AZT, reference compound], the Plaques/culture in assay [2] (0.5 μg/ml, 10^2 input) turned out to be 34 ± 3 Plaques/culture; in assay [2] (0.5 μg/ml, 10^3 input), 657 ± 24 Plaques/culture; in assay [2] (5 μg/ml, 10^2 input), 43 ± 3 Plaques/culture; in assay [2] (5 μg/ml, 10^3 input), 382 ± 59 Plaques/culture; in assay [2] (50 μg/ml, 10^2 input) it was 23 ± 5 Plaques/culture; in assay [2] (50 μg/ml, 10^3 input) it was 131 ± 10 Plaques/culture. Further, the Plaques/culture in assay [2] (500 μg/ml, 10^2 input) amounted to 5 ± 3 Plaques/culture; in assay [2] (500 μg/ml, 10^3 input) it was 43 ± 6 Plaques/culture. Besides, the inhibition at 0.5 µg/mL in assay [2] (0.5 μg/ml, 10^2 input) is 69%; in assay [2] (0.5 μg/ml, 10^3 input), 14%. Also, the inhibition at 5 µg/mL in assay [2] (5 μg/ml, 10^2 input) is 60%; in assay [2] (5 μg/ml, 10^3 input), 50%. Further, the inhibition at 50 µg/mL in assay [2] (50 μg/ml, 10^2 input) was determined as 79%; in assay [2] (50 μg/ml, 10^3 input), 83%. In addition, the inhibition at 500 µg/mL in assay [2] (500 μg/ml, 10^2 input) worked out at 95%; in assay [2] (500 μg/ml, 10^3 input), 94%.
Take `CCCCCCCCCCCCCCCCCCCCCCO` [C-22 Alcohol, n-docosanol]: the Plaques/culture in assay [2] (0.5 μg/ml, 10^2 input) is 110 ± 2 Plaques/culture; in assay [2] (0.5 μg/ml, 10^3 input) it was 703 ± 88 Plaques/culture; in assay [2] (5 μg/ml, 10^2 input), 84 ± 12 Plaques/culture; in assay [2] (5 μg/ml, 10^3 input), 561 ± 50 Plaques/culture; in assay [2] (50 μg/ml, 10^2 input), 72 ± 24 Plaques/culture; in assay [2] (50 μg/ml, 10^3 input) it was 562 ± 11 Plaques/culture. Further, the Plaques/culture in assay [2] (500 μg/ml, 10^2 input) was found to be 13 ± 2 Plaques/culture; in assay [2] (500 μg/ml, 10^3 input), 401 ± 5 Plaques/culture. Besides, the inhibition at 0.5 µg/mL in assay [2] (0.5 μg/ml, 10^2 input) stood at 19%; in assay [2] (0.5 μg/ml, 10^3 input), 14%. The inhibition at 5 µg/mL turned out to be 36% in assay [2] (5 μg/ml, 10^2 input) and 31% in assay [2] (5 μg/ml, 10^3 input). Also, the inhibition at 50 µg/mL in assay [2] (50 μg/ml, 10^2 input) was 45%; in assay [2] (50 μg/ml, 10^3 input), 31%. Moreover, the inhibition at 500 µg/mL in assay [2] (500 μg/ml, 10^2 input) amounted to 90%; in assay [2] (500 μg/ml, 10^3 input) it was 51%. Also, the inhibition at 0.06 µg/mL in assay [2] (C-22 alcohol 0.06 μg/ml, 100 PFU/ml (10^2 input)) came out at 7%. Further, the inhibition at 0.6 µg/mL in assay [2] (C-22 alcohol 0.6 μg/ml, 100 PFU/ml (10^2 input)) is 22%. The compound further came in with an inhibition at 6 µg/mL in assay [2] (C-22 alcohol 6 μg/ml, 100 PFU/ml (10^2 input)) of 40%. Also, the inhibition at 60 µg/mL in assay [2] (C-22 alcohol 60 μg/ml, 100 PFU/ml (10^2 input)) was found to be 89%. Besides, the mean clinical score entry in assay [3] (24 hours after the first treatment, vs untreated or control-treated, 5 mg once daily, half i.v., half s.c.) is “significant decrease in mean clinical score”; in assay [3] (after further regimen of 3 treatments (days 50-52)) it was “another significant decrease in mean clinical score”; in assay [3] (day 49, 48 hours after the last injection) it was “a rise in mean clinical score”. Besides, the “P value, decrease in mean clinical score vs untreated” value in assay [3] (after further regimen of 3 treatments) was 0.001. In addition, in assay [3] (after further regimen of 3 treatments, Pluronic F-68 control), the “P value, decrease in mean clinical score vs control-treated” value came out at 0.03. Further, the “day of first complete clinical remission” value in assay [3] (after primary immunization (3 days after initial treatment)) worked out at 47 days. The compound also had a clinically normal mammals in assay [3] (by day 55 after primary immunization) of 100%. For the same compound, the “lag of remission in untreated or control-treated groups behind n-docosanol-treated group” value in assay [3] (complete clinical remission) lay within 8 to 9 days. Moreover, in assay [3] (panel B of FIG. 3), the “occurrence of remission from CIA” value is recorded as “hastened the occurrence of remission from CIA”.
As to `CCCCCCCCCCCCCCCCCCCCCCCCCCCCCCCCO` [C-32], the plant growth activity result in the assay on growth of plants was “do not possess such physiological activity, or at least have very much less physiological activity in plant growth”.
Take `CCCCCCCCCCCCCCCCCCCCCCCCCCO` [hexacosanol]: in assay [1], the “physical performance of athletes” value is on record as “improved physical performance of athletes”.
Consider `CCCCCCCCCCCCCCCCCCCCCCCCCCCCO` [octacosanol], for which the plant growth activity result in the assay on growth of plants was “do not possess such physiological activity, or at least have very much less physiological activity in plant growth”. In addition, the “physical performance of athletes” value in assay [1] was “improved physical performance of athletes”.
With `CCCCCCCCCCCCCCCCCCCCCCCCO` [tetracosanol], the “physical performance of athletes” value in assay [1] is “improved physical performance of athletes”.
